# Assay results published in US20230270713A1, “Administration of Resiniferatoxin For Treatment of Bladder Pain or Bladder Cancer” (Sorrento Therapeutics, Inc., priority 2020, published 2023).
# Several values for one entry are separate records, joined by “and”; a condition that tells them apart may be missing. Equal entries are not always repeated. Where two headings read alike, the source gives them in different places.
# Assay: Pharmacokinetic/toxicokinetic profile of RTX after intravesical instillation in dogs
# Assay type: in vivo, dog
# Procedure: Local tolerance and the pharmacokinetic (PK), and toxicokinetic (TK) profile of RTX in dogs was determined after a single instillation of RTX into the bladder of dogs (n=6). The RTX formulations were prepared using aseptic techniques in a biological safety cabinet (BSC) by mixing the appropriate amount of diluent with the appropriate amount of RTX. Dosing formulation concentrations used were 1 and 10 mcg/mL.
# Three male and three female dogs ranging in weight from 5.95 to 8.60 kg were used in the study. The dogs were assigned into Group 1 (receiving a dose of 1 mcg/mL RTX) or Group 2 (receiving a dose of 10 mcg/mL RTX) as shown in the Table 3 below.
# RTX was administered via intravesical instillation into the urinary bladder. The animals were given a single dose of 25 or 250 mcg/dose in a total volume of 25 mL on Day 1 over a period of 1 hour (±5 minutes). RTX and diluent were administered to the dogs under general anesthesia via a Foley catheter placed into the bladder for 1 hour (±5 minutes).
# Blood samples were collected from all animals on Day 1 pre-dose and at 0.5, 1, 2, 4, 6, 12, 24, 36, 48, 60, and 72 hours post-dose. The toxicokinetic (TK) parameters were determined for RTX, and if appropriate, the metabolites, from mean concentration-time data.
# Cmax is the observed maximum plasma concentration from the start of dosing. Tmax is the time to reach the Cmax. AUC(0-T) is the area under the plasma concentration-time curve from time zero to the last measurable time point calculated by the linear trapezoidal rule.
# [1] = male dogs 1003, 1005 individual, 250 mcg intravesical
# [2] = male dogs, 250 mcg intravesical
smiles,measurement,setting,value
"C=C(C)[C@]12C[C@@H](C)[C@@]34O[C@](Cc5ccccc5)(O[C@@H]1[C@@H]3C=C(COC(=O)Cc1ccc(O)c(OC)c1)C[C@]1(O)C(=O)C(C)=C[C@@H]41)O2 [RTX, resiniferatoxin]",time by which RTX plasma concentrations fell to zero,"male and female dogs, 250 mcg, post-dose",≤ 4 h
same,absorption into the systemic circulation,"male and female dogs, single 250 mcg intravesical instillation",absorbed rapidly
same,Plasma concentration of RTX,"male dog 1001, 25 mcg intravesical, 0.5 h",BQL (*BQL—Below quantifiable limit (<50.0 pg/mL); adequate signal-to-noise enabled reporting value as estimate)
same,Plasma concentration of RTX,"male dog 1001, 25 mcg intravesical, 2 h",BQL (*BQL—Below quantifiable limit (<50.0 pg/mL); adequate signal-to-noise enabled reporting value as estimate)
same,Plasma concentration of RTX,"male dog 1001, 25 mcg intravesical, 4 h",BQL (*BQL—Below quantifiable limit (<50.0 pg/mL); adequate signal-to-noise enabled reporting value as estimate)
same,Plasma concentration of RTX,"male dog 1001, 25 mcg intravesical, 6 h",BQL (*BQL—Below quantifiable limit (<50.0 pg/mL); adequate signal-to-noise enabled reporting value as estimate)
same,Plasma concentration of RTX,"male dog 1001, 25 mcg intravesical, 12 h",BQL (*BQL—Below quantifiable limit (<50.0 pg/mL); adequate signal-to-noise enabled reporting value as estimate)
same,Plasma concentration of RTX,"male dog 1001, 25 mcg intravesical, 24 h",BQL (*BQL—Below quantifiable limit (<50.0 pg/mL); adequate signal-to-noise enabled reporting value as estimate)
same,Plasma concentration of RTX,"male dog 1001, 25 mcg intravesical, 36 h",BQL (*BQL—Below quantifiable limit (<50.0 pg/mL); adequate signal-to-noise enabled reporting value as estimate)
same,Plasma concentration of RTX,"male dog 1001, 25 mcg intravesical, 48 h",BQL (*BQL—Below quantifiable limit (<50.0 pg/mL); adequate signal-to-noise enabled reporting value as estimate)
same,Plasma concentration of RTX,"male dog 1001, 25 mcg intravesical, 60 h",BQL (*BQL—Below quantifiable limit (<50.0 pg/mL); adequate signal-to-noise enabled reporting value as estimate)
same,Plasma concentration of RTX,"male dog 1001, 25 mcg intravesical, 72 h",BQL (*BQL—Below quantifiable limit (<50.0 pg/mL); adequate signal-to-noise enabled reporting value as estimate)
same,Plasma concentration of RTX,"male dog 1001, 25 mcg intravesical, Predose",BQL (*BQL—Below quantifiable limit (<50.0 pg/mL); adequate signal-to-noise enabled reporting value as estimate)
same,AUC(0-T),[1],0.365 ng·h/mL
same,AUC(0-T)/Dose,[1],1.42 pg·h/mL/µg and 1.46 pg·h/mL/µg
same,Cmax,[1],0.44 ng/mL
same,Cmax/Dose,[1],1.06 pg/mL/µg and 1.76 pg/mL/µg
same,Plasma concentration of RTX,"male dogs 1003, 1005 individual, 250 mcg intravesical, 0.5 h",0.44 ng/mL
same,Plasma concentration of RTX,"male dogs 1003, 1005 individual, 250 mcg intravesical, 1 h",0.151 ng/mL
same,Plasma concentration of RTX,"male dogs 1003, 1005 individual, 250 mcg intravesical, 2 h",0.0633 ng/mL
same,Plasma concentration of RTX,"male dogs 1003, 1005 individual, 250 mcg intravesical, 4 h",0 ng/mL
same,Plasma concentration of RTX,"male dogs 1003, 1005 individual, 250 mcg intravesical, 6 h",0 ng/mL
same,Plasma concentration of RTX,"male dogs 1003, 1005 individual, 250 mcg intravesical, 12 h",0 ng/mL
same,Plasma concentration of RTX,"male dogs 1003, 1005 individual, 250 mcg intravesical, 24 h",0 ng/mL
same,Plasma concentration of RTX,"male dogs 1003, 1005 individual, 250 mcg intravesical, 36 h",0 ng/mL
same,Plasma concentration of RTX,"male dogs 1003, 1005 individual, 250 mcg intravesical, 48 h",0 ng/mL
same,Plasma concentration of RTX,"male dogs 1003, 1005 individual, 250 mcg intravesical, 60 h",0 ng/mL
same,Plasma concentration of RTX,"male dogs 1003, 1005 individual, 250 mcg intravesical, 72 h",0 ng/mL
same,Plasma concentration of RTX,"male dogs 1003, 1005 individual, 250 mcg intravesical, Predose",0 ng/mL
same,"AUC(0-T)/Dose, Mean",[2],1.44 pg·h/mL/µg
same,"Cmax/Dose, Mean",[2],1.41 pg/mL/µg
same,"Plasma concentration of RTX, Mean","male dogs, 250 mcg intravesical, Predose",0 ng/mL
same,AUC(0-t),"male, dog, plasma, 250 ug, male dogs 1003, 1005 individual, 250 mcg intravesical, read-out: AUC(0-T)",0.356 ng·h/mL
same,Cmax,"male, dog, plasma, 250 ug, male dogs 1003, 1005 individual, 250 mcg intravesical, read-out: Cmax",0.264 ng/mL
same,Tmax,"male, dog, plasma, 250 ug, male dogs 1003, 1005 individual, 250 mcg intravesical, read-out: Tmax",60 min
same,AUC(0-t),"male, dog, plasma, 250 ug, male dogs, 250 mcg intravesical, read-out: AUC(0-T), Mean",0.361 ± 0.00636 ng·h/mL
same,Cmax,"male, dog, plasma, 250 ug, male dogs, 250 mcg intravesical, read-out: Cmax, Mean",0.352 ± 0.124 ng/mL
same,Tmax,"male, dog, plasma, 250 ug, male dogs, 250 mcg intravesical, read-out: Tmax, Mean",45 ± 21.2 min
same,Tmax,"male, dog, plasma, other: intravesical instillation, 250 ug, male dogs, 250 mcg intravesical, read-out: Tmax, Mean",45 min
same,concentration at 1 h,"male, dog, plasma, other: intravesical instillation, 25 mcg, male dog 1001, 25 mcg intravesical, 1 h, read-out: Plasma concentration of RTX",0.0155 ng/mL
same,concentration at 0.5 h,"male, dog, plasma, other: intravesical instillation, 250 mcg, male dogs 1003, 1005 individual, 250 mcg intravesical, 0.5 h, read-out: Plasma concentration of RTX",0.257 ng/mL
same,concentration at 1 h,"male, dog, plasma, other: intravesical instillation, 250 mcg, male dogs 1003, 1005 individual, 250 mcg intravesical, 1 h, read-out: Plasma concentration of RTX",0.264 ng/mL
same,concentration at 2 h,"male, dog, plasma, other: intravesical instillation, 250 mcg, male dogs 1003, 1005 individual, 250 mcg intravesical, 2 h, read-out: Plasma concentration of RTX",0.0597 ng/mL
same,concentration at 4 h,"male, dog, plasma, other: intravesical instillation, 250 mcg, male dogs 1003, 1005 individual, 250 mcg intravesical, 4 h, read-out: Plasma concentration of RTX",0 ng/mL
same,concentration at 6 h,"male, dog, plasma, other: intravesical instillation, 250 mcg, male dogs 1003, 1005 individual, 250 mcg intravesical, 6 h, read-out: Plasma concentration of RTX",0 ng/mL
same,concentration at 12 h,"male, dog, plasma, other: intravesical instillation, 250 mcg, male dogs 1003, 1005 individual, 250 mcg intravesical, 12 h, read-out: Plasma concentration of RTX",0 ng/mL
same,concentration at 24 h,"male, dog, plasma, other: intravesical instillation, 250 mcg, male dogs 1003, 1005 individual, 250 mcg intravesical, 24 h, read-out: Plasma concentration of RTX",0 ng/mL
same,concentration at 36 h,"male, dog, plasma, other: intravesical instillation, 250 mcg, male dogs 1003, 1005 individual, 250 mcg intravesical, 36 h, read-out: Plasma concentration of RTX",0 ng/mL
same,concentration at 48 h,"male, dog, plasma, other: intravesical instillation, 250 mcg, male dogs 1003, 1005 individual, 250 mcg intravesical, 48 h, read-out: Plasma concentration of RTX",0 ng/mL
same,concentration at 60 h,"male, dog, plasma, other: intravesical instillation, 250 mcg, male dogs 1003, 1005 individual, 250 mcg intravesical, 60 h, read-out: Plasma concentration of RTX",0 ng/mL
same,concentration at 72 h,"male, dog, plasma, other: intravesical instillation, 250 mcg, male dogs 1003, 1005 individual, 250 mcg intravesical, 72 h, read-out: Plasma concentration of RTX",0 ng/mL
same,concentration at 0.5 h,"male, dog, plasma, other: intravesical instillation, 250 mcg, male dogs, 250 mcg intravesical, 0.5 h, read-out: Plasma concentration of RTX, Mean",0.349 ng/mL
same,concentration at 1 h,"male, dog, plasma, other: intravesical instillation, 250 mcg, male dogs, 250 mcg intravesical, 1 h, read-out: Plasma concentration of RTX, Mean",0.208 ng/mL
same,concentration at 2 h,"male, dog, plasma, other: intravesical instillation, 250 mcg, male dogs, 250 mcg intravesical, 2 h, read-out: Plasma concentration of RTX, Mean",0.0615 ng/mL
same,concentration at 4 h,"male, dog, plasma, other: intravesical instillation, 250 mcg, male dogs, 250 mcg intravesical, 4 h, read-out: Plasma concentration of RTX, Mean",0 ng/mL
same,concentration at 6 h,"male, dog, plasma, other: intravesical instillation, 250 mcg, male dogs, 250 mcg intravesical, 6 h, read-out: Plasma concentration of RTX, Mean",0 ng/mL
same,concentration at 12 h,"male, dog, plasma, other: intravesical instillation, 250 mcg, male dogs, 250 mcg intravesical, 12 h, read-out: Plasma concentration of RTX, Mean",0 ng/mL
same,concentration at 24 h,"male, dog, plasma, other: intravesical instillation, 250 mcg, male dogs, 250 mcg intravesical, 24 h, read-out: Plasma concentration of RTX, Mean",0 ng/mL
same,concentration at 36 h,"male, dog, plasma, other: intravesical instillation, 250 mcg, male dogs, 250 mcg intravesical, 36 h, read-out: Plasma concentration of RTX, Mean",0 ng/mL
same,concentration at 48 h,"male, dog, plasma, other: intravesical instillation, 250 mcg, male dogs, 250 mcg intravesical, 48 h, read-out: Plasma concentration of RTX, Mean",0 ng/mL
same,concentration at 60 h,"male, dog, plasma, other: intravesical instillation, 250 mcg, male dogs, 250 mcg intravesical, 60 h, read-out: Plasma concentration of RTX, Mean",0 ng/mL
same,concentration at 72 h,"male, dog, plasma, other: intravesical instillation, 250 mcg, male dogs, 250 mcg intravesical, 72 h, read-out: Plasma concentration of RTX, Mean",0 ng/mL
